# Key:
# [1] = system: hippocampal slices of nf1+/− mice; assay: Hippocampal LTP at the Schaffer collateral/CA1 synapse in slices from treated mice; type: in vivo, mouse; conditions: 10 mg/kg s.c. once per day for 4 days
# nf1+/− mice [2] = assay: Water maze test (spatial learning); type: in vivo, mouse
# Source text: The basic protocol for the water maze experiments has been previously described. Mice from the 129T2/SvEmsJ-C57B/6N F1 genetic background were given two trials per day (30-s inter-trial intervals) with a probe trial (60 s) at the end of training day 5 and 7.
# Spatial problems are among the most common cognitive deficits in individuals affected with NF1. […] Mice were trained with two trials per day.
# In the probe trials the platform was removed from the pool and the mice were allowed to search for it for 60 seconds.
# nf1+/− mice [3] = assay: Lateralized reaction time task (attention); type: in vivo, mouse; conditions: 10 mg/kg oral pellets daily, target stimulus duration 0.5 sec
# Source text: Mice were fed 1.5 gm of chow every day in their home cages (1 hr after experiment). […] Mice were trained in miniaturized versions of a “5-choice” box (Med Associates Inc., St Albans Vt.) that was equipped with a curved wall with horizontal array five apertures that could be internally illuminated. The opposite wall was fitted with a food receptacle where pellets were delivered as reinforcers. The animals were shaped to produce a “poke and hold” response in the central aperture. A correct response was scored when the animals correctly poked a side aperture that had been indicated during the poke and hold response. […] When animals performed at 75% accuracy at 1 second target stimulus duration they entered the test phase. Mice were tested on a variable duration condition in which the target aperture was illuminated for 0.5, 1.0 or 2.0 sec (varied from trial to trial within the session). Correct responses/total trials were measured, which vary as a function of the target stimulus duration and was therefore analyzed with repeated measures analysis of variance (the repeated measure being stimulus duration).
# Besides spatial impairments, NF-1 patients also show attention deficits. […] For this purpose, a lateralized reaction-time task, a test that measures divided visuo-spatial attention, was used. […]
# nf1+/− mice [4] = assay: Prepulse inhibition; type: in vivo, mouse
# Protocol: Following an acclimation period of 5 min, mice were presented with a total of 20 noise bursts (40 ms duration, 120 dB, <1 ms rise/fall time). In the prepulse inhibition phase, mice were presented with a total of 90 trials. Three prepulse intensities were tested: 70, 75 and 80 dB. Prepulses were 20 ms in duration with a rise/fall time of less than 1 ms. For each prepulse intensity, there were three types of trial: prepulse alone, prepulse/startle stimulus and startle stimulus alone. In the prepulse/startle stimulus trial, the onset of the prepulse preceded the onset of the startle stimulus by 100 ms. Background noise levels were maintained at 68 dB throughout testing, and the trials were spaced […].
# This task assays sensory “gating” of environmental stimuli. A powerful and sudden acoustic stimulus will elicit a whole body startle response. When the startle producing stimulus is preceded by a weak pre-stimulus (by approximately 100 milliseconds) the startle response is inhibited in normal persons and animals. Previous studies show a high incidence of ADHD in NF1 and support an association between ADHD and learning problems in these children.
# p21Ras-GTP = assay: p21Ras activity assay (GST-Raf1-RBD pull-down) in hippocampal extracts of treated mice
# [5] = system: phosphorylated p44/42 MAPK; assay: Western blot for p44/42 MAP kinase phosphorylation in hippocampal extracts of treated mice
smiles,measurement,setting,value
CC[C@H](C)C(=O)O[C@H]1C[C@@H](C)C=C2C=C[C@H](C)[C@H](CC[C@@H]3C[C@@H](O)CC(=O)O3)[C@H]21 [lovastatin],LTP deficits of nf1+/− mice,[1],completely reversed the LTP deficits
same,"amount of LTP induced, versus WT","[1]; nf1+/− mice, PLSD P=0.602",equivalent to that of WTs
same,"amount of LTP induced, versus untreated nf1+/− mutants","[1]; nf1+/− mice, five theta-burst stimulation, PLSD P<0.05",significantly higher than that induced in mutants
same,"proximity to exact platform position versus opposite position, probe trial","nf1+/− mice [2]; WT mice on lovastatin, t19=2.159, P<0.05",searched closer to the exact platform position than to the opposite position in the pool
same,cognitive function in control mice,nf1+/− mice [2]; dose effective in nf1+/− mice (10 mg/kg),did not affect cognitive function in control mice
same,"proximity to exact platform position versus opposite position, probe trial","nf1+/− mice [2]; nf1+/− mice on lovastatin, t20=2.170, P<0.05",searched closer to the exact platform position than to the opposite position in the pool
same,"time spent in training quadrant, day 7 probe trial, versus WT","nf1+/− mice [2]; nf1+/− mice, 10 mg/kg s.c. 3 days before training then 6 hours before training daily, P=0.862",spent as much time as WTs in the training quadrant
same,"time spent in training quadrant, day 7 probe trial, versus mutants given placebo","nf1+/− mice [2]; nf1+/− mice, 10 mg/kg s.c., P<0.05",significantly more time than mutants given placebo
same,"correct response rate, versus nf1+/− given placebo",nf1+/− mice [3]; PLSD P<0.05,significantly higher
same,"correct response rate, versus WT mice",nf1+/− mice [3]; PLSD P=0.148,indistinguishable from that of WT mice
same,"PPI performance, main effect of treatment","nf1+/− mice [4]; 10 mg/kg oral pellets daily, F1,30=6.61, P<0.05",resulted in an increase in performance
same,"PPI performance, versus WT animals on placebo","nf1+/− mice [4]; nf1+/− animals on lovastatin, PLSD P=0.877",indistinguishable from that of WT animals on placebo
same,hippocampal levels of p21Ras-GTP,p21Ras-GTP; WT as printed in b156 (FIG. 1c),decreased the hippocampal levels of p21Ras-GTP in WT
same,active p21Ras (p21Ras-GTP),"p21Ras-GTP; nf1+/− mice, FIG. 1c legend",decreased active p21Ras (p21Ras-GTP)
same,amount of phosphorylated p44/42 MAPK (the active form) in hippocampus,"[5]; WT mice, 0-50 mg/kg s.c. once per day for 4 days, 6 hours after final injection",decreased the amount of phosphorylated p44/42 MAPK (the active form) in a dose-dependent fashion
same,levels of phosphorylated p44/42 MAPK in hippocampus,"[5]; nf1+/− mice, 10 mg/kg s.c. once per day for 4 days",decreased the levels of phosphorylated p44/42 MAPK

# Reference: patent US8222293B2, “Treating learning deficits with inhibitors of Hmg CoA reductase” (Regents of the University of Carolina, priority 2004, dated 2012)
